According to patent US10251395B2, “Substituted furano-/thienocycloalkylamino-2-pyrimidine derivatives and use thereof for controlling undesired plant growth” (Bayer CropScience Aktiengesellschaft, priority 2015, dated 2019):

Legend:
Format in all cases: in vivo
[1] = tested on: Alopecurus myosuroides; assay: Pre-emergence herbicidal effect; conditions: scored visually after 3 weeks
Source text: (§1) Seeds of monocotyledonous and dicotyledonous weed plants and crop plants are laid out in wood-fiber pots in sandy loam and covered with soil. The compounds of the invention, formulated in the form of wettable powders (WP) or as emulsion concentrates (EC), are then applied to the surface of the covering soil as aqueous suspension or emulsion at a water application rate equating to 600 to 800 L/ha with addition of 0.2% wetting agent.
(§2) After the treatment, the pots are placed in a greenhouse and kept under good growth conditions for the trial plants. The damage to the test plants is scored visually after a test period of 3 weeks by comparison with untreated controls (herbicidal activity in percent (%): 100% activity=the plants have died, 0% activity=like control plants).
(§3) • ABUTH: Abutilon theophrasti ALOMY: Alopecurus myosuroides • AMARE: Amaranthus retroflexus AVEFA: Avena fatua • CYPES: Cyperus esculentus ECHCG: Echinochloa crus-galli • LOLMU: Lolium multiflorum MATIN: Matricaria inodora • PHBPU: Ipomoea purpurea POLCO: Polygonum convolvulus • SETVI: Setaria viridis STEME: Stellaria media • VERPE: Veronica persica VIOTR: Viola tricolor

[2] = tested on: Amaranthus retroflexus; assay: Pre-emergence herbicidal effect; conditions: scored visually after 3 weeks
Source text: as §1, §2, §3

[3] = tested on: Echinochloa crus-galli; assay: Pre-emergence herbicidal effect; conditions: scored visually after 3 weeks
Source text: as §1, §2, §3

[4] = tested on: Lolium multiflorum; assay: Pre-emergence herbicidal effect; conditions: Dosage 320 g/ha, scored visually after 3 weeks
Source text: as §1, §2, §3

[5] = tested on: Matricaria inodora; assay: Pre-emergence herbicidal effect; conditions: scored visually after 3 weeks
Source text: as §1, §2, §3

[6] = tested on: Polygonum convolvulus; assay: Pre-emergence herbicidal effect; conditions: scored visually after 3 weeks
Source text: as §1, §2, §3

[7] = tested on: Setaria viridis; assay: Pre-emergence herbicidal effect; conditions: scored visually after 3 weeks
Source text: as §1, §2, §3

[8] = tested on: Stellaria media; assay: Pre-emergence herbicidal effect; conditions: scored visually after 3 weeks
Source text: as §1, §2, §3

[9] = tested on: Veronica persica; assay: Pre-emergence herbicidal effect; conditions: scored visually after 3 weeks
Source text: as §1, §2, §3

[10] = tested on: Viola tricolor; assay: Pre-emergence herbicidal effect; conditions: scored visually after 3 weeks
Source text: as §1, §2, §3

[11] = tested on: Abutilon theophrasti; assay: Post-emergence herbicidal effect; conditions: assessed visually after about 3 weeks vs untreated controls
Source text: (§4) • ABUTH: Abutilon theophrasti ALOMY: Alopecurus myosuroides • AMARE: Amaranthus retroflexus AVEFA: Avena fatua • CYPES: Cyperus esculentus ECHCG: Echinochloa crus-galli • LOLMU: Lolium multiflorum MATIN: Matricaria inodora • PHBPU: Ipomoea purpurea POLCO: Polygonum convolvulus • SETVI: Setaria viridis STEME: Stellaria media • VERPE: Veronica persica VIOTR: Viola tricolor Seeds of monocotyledonous and dicotyledonous weed and crop plants are laid out in sandy loam in wood-fiber pots, covered with soil and cultivated in a greenhouse under good growth conditions. 2 to 3 weeks after sowing, the test plants are treated at the one-leaf stage. The compounds of the invention, formulated in the form of wettable powders (WP) or as emulsion concentrates (EC), are then sprayed onto the green parts of the plants as aqueous suspension or emulsion at a water application rate equating to 600 to 800 L/ha with addition of 0.2% wetting agent. After the test plants have been left to stand in the greenhouse under optimal growth conditions for about 3 weeks, the action of the preparations is assessed visually in comparison to untreated controls (herbicidal action in percent (%): 100% activity=the plants have died, 0% activity=like control plants).

[12] = tested on: Ipomoea purpurea; assay: Post-emergence herbicidal effect; conditions: assessed visually after about 3 weeks vs untreated controls
Source text: as §4

[13] = tested on: Setaria viridis; assay: Post-emergence herbicidal effect; conditions: assessed visually after about 3 weeks vs untreated controls
Source text: as §4

[14] = tested on: Stellaria media; assay: Post-emergence herbicidal effect; conditions: assessed visually after about 3 weeks vs untreated controls
Source text: as §4

[15] = tested on: Veronica persica; assay: Post-emergence herbicidal effect; conditions: assessed visually after about 3 weeks vs untreated controls
Source text: as §4

[16] = tested on: Viola tricolor; assay: Post-emergence herbicidal effect; conditions: assessed visually after about 3 weeks vs untreated controls
Source text: as §4

[17] = tested on: Amaranthus retroflexus; assay: Post-emergence herbicidal effect; conditions: assessed visually after about 3 weeks vs untreated controls
Source text: as §4

[18] = tested on: Echinochloa crus-galli; assay: Post-emergence herbicidal effect; conditions: 320 g/ha, assessed visually after about 3 weeks vs untreated controls
Source text: as §4

Row | Compound | ALOMY pre-emergence efficacy (herbicidal activity) ([1]; Dosage 80 g/ha) | ALOMY pre-emergence efficacy (herbicidal activity) ([1]; Dosage 320 g/ha) | AMARE pre-emergence efficacy (herbicidal activity) ([2]; Dosage 320 g/ha) | ECHCG pre-emergence efficacy (herbicidal activity) ([3]; Dosage 320 g/ha) | LOLMU pre-emergence efficacy (herbicidal activity) [4] | MATIN pre-emergence efficacy (herbicidal activity) ([5]; Dosage 80 g/ha) | MATIN pre-emergence efficacy (herbicidal activity) ([5]; Dosage 320 g/ha) | POLCO pre-emergence efficacy (herbicidal activity) ([6]; Dosage 320 g/ha) | SETVI pre-emergence efficacy (herbicidal activity) ([7]; Dosage 320 g/ha) | STEME pre-emergence efficacy (herbicidal activity) ([8]; Dosage 80 g/ha) | STEME pre-emergence efficacy (herbicidal activity) ([8]; Dosage 320 g/ha) | VERPE pre-emergence efficacy (herbicidal activity) ([9]; Dosage 80 g/ha) | VERPE pre-emergence efficacy (herbicidal activity) ([9]; Dosage 320 g/ha) | VIOTR pre-emergence efficacy (herbicidal activity) ([10]; Dosage 80 g/ha) | VIOTR pre-emergence efficacy (herbicidal activity) ([10]; Dosage 320 g/ha) | post-emergence efficacy SETVI ([13]; 320 g/ha) | post-emergence efficacy STEME ([14]; 320 g/ha) | post-emergence efficacy VERPE ([15]; 320 g/ha) | post-emergence efficacy VIOTR ([16]; 80 g/ha) | post-emergence efficacy VIOTR ([16]; 320 g/ha) | further results
1 | C=C(c1cnc(NC2CCCc3sc(C)cc32)nc1N)C(F)(F)F (racemic) [compound 275] | 80% | 80% | 100% | 100% | 60% | 90% | 100% | 70% | 100% | 100% | 100% | 100% | 100% | 100% | 100% | 80% | 90% | 90% | 70% | 90% | AMARE pre-emergence efficacy (herbicidal activity) ([2]; Dosage 80 g/ha): 70%; SETVI pre-emergence efficacy (herbicidal activity) ([7]; Dosage 80 g/ha): 90%; post-emergence efficacy ABUTH ([11]; 80 g/ha): 80%; post-emergence efficacy ABUTH ([11]; 320 g/ha): 90%; post-emergence efficacy PHBPU ([12]; 320 g/ha): 70%; post-emergence efficacy SETVI ([13]; 80 g/ha): 70%; post-emergence efficacy STEME ([14]; 80 g/ha): 90%
2 | Nc1nc(NC2CCc3cc(Cl)sc32)ncc1C(F)(F)F (racemic) [compound 48] |  | 80% | 100% | 100% |  | 80% | 90% |  | 80% |  | 100% | 100% | 100% | 100% | 100% | 90% | 90% | 80% | 80% | 90% | ECHCG pre-emergence efficacy (herbicidal activity) ([3]; Dosage 80 g/ha): 100%; post-emergence efficacy AMARE ([17]; 80 g/ha): 80%; post-emergence efficacy AMARE ([17]; 320 g/ha): 90%; post-emergence efficacy ECHCG [18]: 100%; post-emergence efficacy PHBPU ([12]; 320 g/ha): 80%; post-emergence efficacy SETVI ([13]; 80 g/ha): 80%
3 | CS(=O)(=O)c1cnc(NC2CCc3cc(Cl)sc32)nc1N (racemic) [compound 50] |  |  | 100% | 100% | 80% | 90% | 90% | 100% | 100% | 100% | 100% | 100% | 100% | 80% | 100% |  | 100% | 90% | 90% | 100% | AMARE pre-emergence efficacy (herbicidal activity) ([2]; Dosage 80 g/ha): 100%; ECHCG pre-emergence efficacy (herbicidal activity) ([3]; Dosage 80 g/ha): 90%; post-emergence efficacy AMARE ([17]; 80 g/ha): 80%; post-emergence efficacy AMARE ([17]; 320 g/ha): 90%; post-emergence efficacy VERPE ([15]; 80 g/ha): 80%
4 | CC(=O)c1c(N)nc(NC2CCCc3sc(C)cc32)nc1C(F)(F)F (racemic) [compound 268] | 80% | 90% | 100% |  |  |  | 90% |  | 90% | 90% | 100% | 100% | 100% | 80% | 90% | 80% | 100% | 80% | 80% | 80% | AMARE pre-emergence efficacy (herbicidal activity) ([2]; Dosage 80 g/ha): 100%; SETVI pre-emergence efficacy (herbicidal activity) ([7]; Dosage 80 g/ha): 90%; post-emergence efficacy STEME ([14]; 80 g/ha): 100%; post-emergence efficacy VERPE ([15]; 80 g/ha): 80%
5 | CN=C(C)c1cnc(NC2CCCc3sc(C)cc32)nc1N (centres unmarked) [compound 352] |  |  | 100% |  | 60% | 90% | 90% | 60% | 100% | 100% | 100% | 100% | 100% | 80% | 100% | 80% |  | 100% | 80% | 90% | POLCO pre-emergence efficacy (herbicidal activity) ([6]; Dosage 80 g/ha): 60%; post-emergence efficacy ABUTH ([11]; 80 g/ha): 80%; post-emergence efficacy ABUTH ([11]; 320 g/ha): 90%
6 | Cc1cc2c(s1)CCCC2Nc1ncc(-c2cccc(C(F)(F)F)c2)c(N)n1 (racemic) [compound 294] | 70% | 100% |  |  | 100% | 90% | 100% | 80% |  | 100% | 100% | 100% | 100% | 80% | 90% |  |  | 90% |  |  | POLCO pre-emergence efficacy (herbicidal activity) ([6]; Dosage 80 g/ha): 70%; post-emergence efficacy ABUTH ([11]; 80 g/ha): 60%; post-emergence efficacy ABUTH ([11]; 320 g/ha): 70%; post-emergence efficacy AMARE ([17]; 80 g/ha): 70%; post-emergence efficacy AMARE ([17]; 320 g/ha): 70%
7 | CCOC(=O)c1cnc(NC2CCCc3sc(C)cc32)nc1N (racemic) [compound 293] |  | 70% | 100% | 80% | 60% | 70% | 100% |  | 100% | 100% | 100% |  | 100% |  | 100% |  | 100% | 90% | 70% | 90% | post-emergence efficacy PHBPU ([12]; 80 g/ha): 80%; post-emergence efficacy PHBPU ([12]; 320 g/ha): 90%; post-emergence efficacy STEME ([14]; 80 g/ha): 80%
